The test system of one data set is SARS-CoV-2. Nature of the data set: Anti-viral potency in VERO E6 cells (cytopathic viral activity, crystal violet). Format: cell-based. The following applies: Severe acute respiratory syndrome coronavirus 2, Vero C1008, 48 h, read-out: SARS-COV-2 EC50 (μM). For orientation: Damage to the host cells serves as the signal in cytopathic effect assays.
A further data set has as its target T1, SARS-CoV-2 PLpro (Severe acute respiratory syndrome coronavirus 2, UniProt P0DTD1).
T1 construct: containing 60 nM papain-like protease
Nature of the data set: biochemical. The settings on record: 60 nM papain-like protease, 50 μM Z-RLRGG-AMC, pH 7.5, 37° C.; read-out: SARS-CoV-2 PLpro IC50.

Data set [1] deals with human Hep G2 cells (ATCC HB-8065). Nature of the data set: Cytotoxicity in Hep G2 cells (CellTiter-Glo). In kind it is cell-based. The following applies: Hep G2 cells, 100 μM test article, 24-hour exposure.

Structures can show the parent of a compound that is named as a salt.

One may read the EC50 as the concentration giving half of the maximal effect. What is called IC50 is the midpoint of a concentration-inhibition curve.

Consider `COc1ccc([C@@H](C)NC(=O)c2cc(N3CCNCC3)ccc2C)cc1-c1cnn(C)c1` [Example 260, N-[(1R)-1-[4-Methoxy-3-(1-methylpyrazol-4-yl)phenyl]ethyl]-2-methyl-5-piperazin-1-yl-benzamide], for which, in the data set with SARS-CoV-2, the half-maximal effective concentration (EC50) was less than 15 µM. Further, the IC50 at SARS-CoV-2 PLpro was less than 2 µM. The “% Cell Viability” value in data set [1] was 91.1%.

Regarding `COc1cc(-c2cnn(C)c2C)cc([C@@H](C)NC(=O)c2cc(N3CCN(C)CC3)ccc2C)c1` [Example 253, N-[(1R)-1-[3-(1,5-Dimethylpyrazol-4-yl)-5-methoxy-phenyl]ethyl]-2-methyl-5-(4-methylpiperazin-1-yl)benzamide hydrochloride salt], the EC50 with SARS-CoV-2 was less than 5 µM. For the same compound, at SARS-CoV-2 PLpro, the 50% inhibitory concentration (IC50) was less than 2 µM. For the same compound, the “% Cell Viability” value in data set [1] amounted to 89.3%.

`CCn1cc(-c2cc(OC)cc([C@@H](C)NC(=O)c3cc(N4CCN(C)CC4)ccc3C)c2)cn1` [Example 220, N-[(1R)-1-[3-(1-Ethylpyrazol-4-yl)-5-methoxy-phenyl]ethyl]-2-methyl-5-(4-methylpiperazin-1-yl)benzamide]: the EC50 with SARS-CoV-2 is less than 15 µM. Also, the concentration for half-maximal inhibition (IC50) on SARS-CoV-2 PLpro was less than 2 µM. In addition, the “% Cell Viability” value in data set [1] is on record as 80.7%.

Turning to `COc1cc([C@@H](C)NC(=O)c2cc(N3CCN(C)CC3)ccc2C)ccc1-c1cnn(C)c1` [Example 306, N-[(1R)-1-[3-Methoxy-4-(1-methylpyrazol-4-yl)phenyl]ethyl]-2-methyl-5-(4-methylpiperazin-1-yl)benzamide], the EC50 in the data set with SARS-CoV-2 was less than 5 µM. For the same compound, the IC50 at SARS-CoV-2 PLpro was less than 2 µM. The “% Cell Viability” value in data set [1] is 88.4%.

As for `Cc1ccc(N2CCN(C)CC2)cc1C(=O)N[C@H](C)c1cccc(-c2cn(C)nc2C)c1` [Example 61, N-[(1R)-1-[3-(1,3-Dimethylpyrazol-4-yl)phenyl]ethyl]-2-methyl-5-(4-methylpiperazin-1-yl)benzamide], the EC50 in the data set on SARS-CoV-2 is less than 5 µM. Also, at SARS-CoV-2 PLpro, the 50% inhibitory concentration (IC50) is less than 2 µM. Moreover, the “% Cell Viability” value in data set [1] is given as 69.2%.
